The values below are quoted from earlier work in patent publication US7713553B2, “Method of manufacture of a liquid pesticide containing copper and a liquid pesticide containing copper” (Genics Inc., priority 2001, dated 2010).

In the case of `[Cu+2].[OH-].[OH-]` [copper hydroxide], the solubility in water result is “almost insoluble”.
